Reference: the NIST ThermoML archive (doi:10.1016/j.jct.2004.09.017)
± gives the expanded uncertainty stated by the source.

What was measured:
[1] = refractive index (Na D-line) (dimensionless); xn = mol fraction of the nth substance listed; conditions: 298.2 K, 101.3 kPa, Liquid
[2] = relative permittivity at various frequencies (dimensionless); xn = mol fraction of the nth substance listed; conditions: 298.2 K, 101.3 kPa, Liquid, Frequency=0.1 MHz, Wayne Kerr model 6425B Digibridge
[3] = refractive index (Na D-line) (dimensionless); conditions: 298.2 K; 101.33 kPa; Liquid
[4] = relative permittivity at various frequencies (dimensionless); conditions: 298.2 K; 101.3 kPa; Liquid; Frequency=0.01 MHz; Wayne Kerr model 6425B Digibridge

CC(C)(C)O [2-methylpropan-2-ol] + C1CCCCC1
Conditions	refractive index, [1]	relative permittivity, [2]
x1 = 0.07	1.4241 ± 0.001	2.051 ± 0.082
x1 = 0.1	1.4226 ± 0.001	2.058 ± 0.082
x1 = 0.2	1.4179 ± 0.001	2.089 ± 0.084
x1 = 0.3	1.4138 ± 0.001	2.308 ± 0.092
x1 = 0.4	1.41 ± 0.001	2.586 ± 0.1
x1 = 0.5	1.4056 ± 0.001	3.096 ± 0.12
x1 = 0.6	1.4007 ± 0.001	3.88 ± 0.16
x1 = 0.8	1.3928 ± 0.001	6.422 ± 0.26

CCCCC(CC)CO (configuration not stated) [2-ethyl-1-hexanol] + CCCCO
Conditions	refractive index, [1]	relative permittivity, [2]
x2 = 0	1.4316 ± 0.001	7.354 ± 0.29
x2 = 0.1	1.4291 ± 0.001	8.21 ± 0.33
x2 = 0.15	1.4278 ± 0.001	8.682 ± 0.35
x2 = 0.3	1.4238 ± 0.001	10.48 ± 0.42
x2 = 0.42	1.4214 ± 0.001	11.42 ± 0.46
x2 = 0.53	1.4182 ± 0.001	12.01 ± 0.48
x2 = 0.63	1.415 ± 0.001	12.9 ± 0.52
x2 = 0.72	1.412 ± 0.001	14.34 ± 0.57
x2 = 0.8	1.4088 ± 0.001	15.21 ± 0.61
x2 = 0.9	1.4036 ± 0.001	16.41 ± 0.66

CCCCC(CC)CO (configuration not stated) [2-ethyl-1-hexanol]
Conditions	refractive index	relative permittivity
[3]	1.4316 ± 0.001	–
[4]	–	7.354 ± 0.29

CC(C)(C)O [2-methylpropan-2-ol] + CCCCC(CC)CO
x1 = 1
Conditions	refractive index	relative permittivity
[1]	1.3864 ± 0.001	–
[2]	–	12.23 ± 0.49

CCCCO [butan-1-ol] + CCCCC(CC)CO
x1 = 1
Conditions	refractive index	relative permittivity
[1]	1.3988 ± 0.001	–
[2]	–	17.5 ± 0.7

CCO [ethanol]
Conditions	refractive index	relative permittivity
[3]	1.3592 ± 0.001	–
[4]	–	23.646 ± 0.95

CCCCO [butan-1-ol]
Conditions	refractive index	relative permittivity
[3]	1.3988 ± 0.001	–
[4]	–	17.5 ± 0.7

CCCCC(CC)CO (configuration not stated) [2-ethyl-1-hexanol] + CCO
Conditions	refractive index, [1]	relative permittivity, [2]
x2 = 0	1.4316 ± 0.001	7.354 ± 0.29
x2 = 0.12	1.4261 ± 0.001	8.086 ± 0.32
x2 = 0.23	1.4232 ± 0.001	8.999 ± 0.36
x2 = 0.32	1.4194 ± 0.001	10.192 ± 0.41
x2 = 0.4	1.4162 ± 0.001	11.099 ± 0.44
x2 = 0.47	1.4123 ± 0.001	12.08 ± 0.48
x2 = 0.53	1.4097 ± 0.001	12.744 ± 0.51
x2 = 0.64	1.4015 ± 0.001	14.496 ± 0.58
x2 = 0.7	1.3971 ± 0.001	15.885 ± 0.64
x2 = 0.82	1.386 ± 0.001	18.259 ± 0.73

CCO [ethanol] + CCCCC(CC)CO
x1 = 1
Conditions	refractive index	relative permittivity
[1]	1.3592 ± 0.001	–
[2]	–	23.646 ± 0.95

C1CCCCC1 [cyclohexane] + CCO
Conditions	refractive index, [1]	relative permittivity, [2]
x2 = 0.1	1.4235 ± 0.001	2.155 ± 0.086
x2 = 0.24	1.4179 ± 0.001	2.571 ± 0.1
x2 = 0.42	1.4103 ± 0.001	4.223 ± 0.17
x2 = 0.55	1.4032 ± 0.001	6.462 ± 0.26
x2 = 0.66	1.3953 ± 0.001	8.974 ± 0.36
x2 = 0.74	1.3887 ± 0.001	11.249 ± 0.45
x2 = 0.81	1.3813 ± 0.001	13.878 ± 0.56
x2 = 0.9	1.3733 ± 0.001	17.89 ± 0.72

C1CCCCC1 [cyclohexane] + CCCCO
Conditions	refractive index, [1]	relative permittivity, [2]
x2 = 0.05	1.4206 ± 0.001	2.439 ± 0.098
x2 = 0.1	1.4191 ± 0.001	2.683 ± 0.11
x2 = 0.2	1.4162 ± 0.001	3.112 ± 0.12
x2 = 0.3	1.4132 ± 0.001	3.952 ± 0.16
x2 = 0.4	1.4109 ± 0.001	4.888 ± 0.2
x2 = 0.5	1.4085 ± 0.001	6.713 ± 0.27
x2 = 0.6	1.4061 ± 0.001	8.451 ± 0.34
x2 = 0.72	1.4035 ± 0.001	10.848 ± 0.43

CCCCC(CC)CO (configuration not stated) [2-ethyl-1-hexanol] + CC(C)(C)O
Conditions	refractive index, [1]	relative permittivity, [2]
x2 = 0	1.4316 ± 0.001	7.354 ± 0.29
x2 = 0.05	1.4304 ± 0.001	7.487 ± 0.3
x2 = 0.07	1.4298 ± 0.001	7.598 ± 0.3
x2 = 0.09	1.429 ± 0.001	7.653 ± 0.31
x2 = 0.1	1.4287 ± 0.001	7.685 ± 0.31
x2 = 0.2	1.427 ± 0.001	8.057 ± 0.32
x2 = 0.3	1.4235 ± 0.001	8.506 ± 0.34
x2 = 0.4	1.42 ± 0.001	8.933 ± 0.36
x2 = 0.5	1.4163 ± 0.001	9.398 ± 0.38
x2 = 0.6	1.4117 ± 0.001	9.952 ± 0.4

CC(C)(C)O [2-methylpropan-2-ol]
Conditions	refractive index	relative permittivity
[3]	1.3864 ± 0.001	–
[4]	–	12.23 ± 0.49
